Patent US11739122B2, “Glycopeptide antibiotic compounds, methods for producing the same, and uses thereof” (Academia Sinica, priority 2019, dated 2023)
Values after ≈ are worked out from the molar mass of the structure shown.

How the values were obtained:
[1] = system: VRE ATCC 700221 (vanA type); experiment: Thin-section TEM, cell wall morphology; type: cell-based, enterococci; conditions: VRE ATCC700221, vanA type
Description: Thin-Section Transmission Electron Microscopy (TEM)
An overnight cultured MRSA ATCC 700787, VRE ATCC 700221 or A. baumannii ATCC 19606 was individually sub-cultured into a fresh medium. Bacteria at the exponential phase were treated with a given test compound at a concentration of 4×MIC for 1-4 hour at 37° C. and followed by wash and resuspension in PBS. Bacteria cells for the TEM analysis were prepared as follows: Cells were fixed with 2.5% glutaraldehyde for 30 minutes. After the fixation, cells were washed twice with PBS and fixed with 1% osmium tetraoxide for another 30 minutes. All the buffer was removed with distilled water. The cells were then stained with 1% uranyl acetate and dehydrated with a graded ethanol solution. Cells were embedded in resin. Finally, each sample was cut into thin slices of approximately 90 nm with a glass knife and stained with uranyl acetate. The images of bacterial morphological were recorded.
The cell wall was almost intact but interspersed with holes, where cell fluids outflew leading cells to death. In general, VRE was immune to compound 1 or 2 (>256 μgmL^−1), median sensitive to compound 14 (32 μgmL^−1), but highly sensitive to compound 28 (4 μgmL^−1). […]

MRSA ATCC 700787 = experiment: In vivo efficacy, intraperitoneal MRSA infection; parameters: species or system mice; conditions: peritoneal fluid, 24 hours post-inoculation, single dose 20 mgkg^−1 IP
Description: In Vivo Efficacy of r6,N-Acyl-Glc Tei Analogs
Female C57BL/6 mice (6 weeks of age; about 16-19 g, 3-5 mice per group) were intraperitoneally inoculated with 300 μL of MRSA ATCC 700787 suspension (about 10^7 CFUmL^−1). For intranasal A. baumannii (ATCC 19606) inoculation, mice were anesthetized, and inoculated intranasally with about 10^7-10^8 CFUmL^−1 A. baumannii in 50 μL of PBS. Treatments were started 1 hour after the bacterial challenge. The dose administration to mice was set as follows: teicoplanin (1) or r6,C8-Tei analog (14) 20 mgkg^−1 was intraperitoneally injected to MRSA-infected mice; amikacin (15 mgkg^−1), teicoplanin (1) (30 mgkg^−1), kanamycin (30 mgkg^−1) or r1,Me2-r6,guanidino-C8 analog (24) (30 mgkg^−1) was intraperitoneally injected to AB-infected mice. To assess bacteraemia, the test animals were sacrificed to collect 1 mL of peritoneal fluid (PF) for MRSA counting or the lungs were lavaged to collect 0.6 mL bronchoalveolar lavage (BAL) fluid for A. baumannii counting.
For MRSA, mice were inoculated intraperitoneally (IP) with 0.3 mL of MRSA ATCC 700787 suspension (about 10^7 CFUmL^−1). […] For the saline treated control, bacterial count was calculated (about 7.5 log CFUmL^−1, FIG. 4A). […]

AB ATCC 19606 = experiment: Minimal bactericidal concentration (MBC); type: cell-based, Acinetobacter baumannii
Description: Minimal Bactericidal Concentration (MBC) Determination
The MBC test is an extension of the MIC examination. MBC was determined by performing subcultures on antibiotic-free agar from both the well where there was no visible growth at the MIC of a tested antibiotic and from the positive control well (with inoculum but without compounds). The plates were incubated at 37° C. for 18-24 hours. The MBC was taken as the lowest concentration of the test compound that results in more than 99.9% reduction of viable bacteria. If MBC was one or two dilutions above a given MIC value (MBC/MIC ratio was less than or equal to four), the antibiotic was considered bactericidal against the test organism.

E. faecalis ATCC 29302 = experiment: MIC, broth microdilution; type: cell-based; conditions: EF ATCC 29302
Procedure, shortened: (§1)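 Inoculum: 0.5 McFarland broth culture, adjusted to ~1×10^8 CFU mL^−1. Incubation 37° C, 18-24 h. Read-out: visible growth; MIC = concentration with no growth in well.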

MRSA ATCC 700787 VRSA = experiment: MIC, broth microdilution; type: cell-based, Staphylococcus aureus
Procedure, shortened: as §1

MRSA ATCC BAA-39 = experiment: MIC, broth microdilution; type: cell-based, Staphylococcus aureus; conditions: MRSA ATCC BAA-39
Procedure, shortened: as §1

MRSA ATCC 700698 hVISA = experiment: MIC, broth microdilution; type: cell-based, Staphylococcus aureus; conditions: MRSA ATCC 700698 hVISA
Procedure, shortened: as §1

MRSA ATCC 43300 = experiment: MIC, broth microdilution; type: cell-based, Staphylococcus aureus; conditions: MRSA ATCC 43300
Procedure, shortened: as §1

S. aureus ATCC 29213 = experiment: MIC, broth microdilution; type: cell-based, Staphylococcus aureus; conditions: SA ATCC 29213
Procedure, shortened: as §1

MRSA ATCC BAA-38 = experiment: MIC, broth microdilution; type: cell-based, Staphylococcus aureus; conditions: MRSA ATCC BAA-38
Procedure, shortened: as §1

MRSA ATCC BAA-44 = experiment: MIC, broth microdilution; type: cell-based, Staphylococcus aureus; conditions: MRSA ATCC BAA-44
Procedure, shortened: as §1

MRSA ATCC 700789 VRSA = experiment: MIC, broth microdilution; type: cell-based, Staphylococcus aureus; conditions: MRSA ATCC 700789 VRSA
Procedure, shortened: as §1

A. baumannii ATCC 19606 = experiment: MIC, broth microdilution; type: cell-based, Acinetobacter baumannii
Procedure, shortened: as §1

- MIC (MRSA ATCC 700787 VRSA; MRSA ATCC 700787, Table 4): 0.016 µg/mL (≈ 0.0108 µM)
- MIC (MRSA ATCC 700787 VRSA; MRSA ATCC 700787 VRSA): 0.016 µg/mL (≈ 0.0108 µM)
- MIC (MRSA ATCC BAA-39): 0.016 µg/mL (≈ 0.0108 µM)
- MIC (MRSA ATCC 700698 hVISA): 0.016 µg/mL (≈ 0.0108 µM)
- MIC (MRSA ATCC 43300): 0.063 µg/mL (≈ 0.0424 µM)
- MIC (S. aureus ATCC 29213): 0.016 µg/mL (≈ 0.0108 µM)
- MIC (MRSA ATCC BAA-38): 0.016 µg/mL (≈ 0.0108 µM)
- MIC (MRSA ATCC BAA-44): 0.016 µg/mL (≈ 0.0108 µM)
- MIC (MRSA ATCC 700789 VRSA): 0.5 µg/mL (≈ 0.336 µM)
- MIC (A. baumannii ATCC 19606; A. baumannii ATCC 19606, Table 3, first figure of cell): 50 µM
- MIC (A. baumannii ATCC 19606; A. baumannii ATCC 19606, Table 3, second figure of cell): 74.22 µg/mL
- MIC (A. baumannii ATCC 19606; AB ATCC 19606, Table 4): 74.22 µg/mL
SMILES: CCCCCCCC(=O)N[C@H]1[C@H](O[C@@H]2c3ccc(c(Cl)c3)Oc3cc4cc(c3O)Oc3ccc(cc3Cl)C[C@H]3NC(=O)[C@H](N)c5ccc(O)c(c5)Oc5cc(O)cc(c5)[C@H](NC3=O)C(=O)N[C@H]4C(=O)N[C@H]3C(=O)N[C@@H]2C(=O)N[C@H](C(=O)O)c2cc(O)cc(O)c2-c2cc3ccc2O)O[C@H](CO)[C@@H](O)[C@@H]1O [Compound 14, r6,N-octyl-Glc Tei]
- sensitivity of VRE to compound (concentration) [1]: 32 µg/mL
- bacterial load reduced by (MRSA ATCC 700787): 2 log CFUmL^−1
- MBC (AB ATCC 19606): 74.22 µg/mL (≈ 49.9 µM)
- MBC/MIC (AB ATCC 19606): 1
- MIC (E. faecalis ATCC 29302): 0.25 µg/mL (≈ 0.168 µM)
